Data published in patent US6867207B2, “IL-5 inhibiting 6-azauracil derivatives” (Janssen Pharmaceutica N.V., priority 1997, dated 2005).
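Also: values marked with an asterisk were tested at 10 µM and unmarked values at 1 µM.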

What follows are molecules tested on IL-5 production (assay: In vitro inhibition of IL-5 production in human blood (phytohemagglutinin-stimulated whole blood, ELISA)). Conditions: test dose 1×10^−6 M, 48 hours.
Type: cell-based
In short: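 Percent inhibition of IL-5, quantified by ELISA in cell-free supernatants, is given at a single dose of 1×10^−6 M (or 1×10^−5 M). Threefold-diluted human whole blood from healthy men received compound for 60 min at 37° C before 48 h PHA stimulation at 2 μg/mL.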
With `O=c1cnn(-c2cc(Cl)c(C(c3ccc(Cl)cc3)c3nc(-c4cccc(F)c4F)cs3)c(Cl)c2)c(=O)[nH]1` (racemic) [Comp 337] the “% inh. (percentage inhibition of IL-5 production)” value was 96%.
For `O=c1cnn(-c2cc(Cl)c(C(c3ccc(Cl)cc3)c3nc4ccccc4s3)c(Cl)c2)c(=O)[nH]1` (stereo not drawn) [Comp 421], the “% inh. (percentage inhibition of IL-5 production)” value was 86%.
With `O=c1cnn(-c2ccc(C(Sc3nc4cccnc4s3)c3ccc(Cl)cc3)c(Cl)c2)c(=O)[nH]1` (racemic) [Compound 81] the “% inh. (percentage inhibition of IL-5 production)” value was 76%.
In the case of `O=c1cnn(-c2cc(Cl)c(C(c3ccc(Cl)cc3)c3nnc(-c4ccccc4)o3)c(Cl)c2)c(=O)[nH]1` (racemic) [Compound 127, (±)-2-[3,5-dichloro-4-[(4-chlorophenyl)(5-phenyl-1,3,4-oxadizol-2-yl)methyl]-phenyl]-1,2,4-triazine-3,5(2H,4H)-dione], the “% inh. (percentage inhibition of IL-5 production)” value is reported as 94%.
`O=c1cnn(-c2cc(Cl)c(C(c3ccc(Cl)c(C(F)(F)F)c3)c3nnc(-c4ccccc4)o3)c(Cl)c2)c(=O)[nH]1` (racemic) [Compound 165] was tested, and the “% inh. (percentage inhibition of IL-5 production)” value was 80%.
For `N#CCc1nnc(C(c2ccc(Cl)cc2)c2c(Cl)cc(-n3ncc(=O)[nH]c3=O)cc2Cl)o1` (racemic) [Compound 179], the “% inh. (percentage inhibition of IL-5 production)” value was 21%.
`O=c1cnn(-c2cc(Cl)c(C(Sc3nc(-c4ccccc4)cs3)c3ccc(Cl)c(C(F)(F)F)c3)c(Cl)c2)c(=O)[nH]1` (stereo not drawn) [Compound 381] was tested, and the “% inh. (percentage inhibition of IL-5 production)” value was 95%.
For `CN1CCN(c2ccc(-c3nnc(C(c4ccc(Cl)cc4)c4c(Cl)cc(-n5ncc(=O)[nH]c5=O)cc4Cl)o3)cc2)CC1` (racemic) [Compound 199], the “% inh. (percentage inhibition of IL-5 production)” value was 43%.
In the case of `Cc1sc(C(c2ccc(Cl)cc2)c2c(Cl)cc(-n3ncc(=O)[nH]c3=O)cc2Cl)nc1-c1cccc(F)c1` (racemic) [Comp 258], the “% inh. (percentage inhibition of IL-5 production)” value is reported as 98%.
With `CN1CCC(C(=O)Cc2sc(C(c3ccc(Cl)cc3)c3c(Cl)cc(-n4ncc(=O)[nH]c4=O)cc3Cl)nc2-c2ccccc2)CC1` (racemic) [Comp 283] the “% inh. (percentage inhibition of IL-5 production)” value was 93%.
With `O=C(CO)Nc1cccc(-c2nnc(C(c3ccc(Cl)cc3)c3c(Cl)cc(-n4ncc(=O)[nH]c4=O)cc3Cl)o2)c1` (racemic) [Compound 215] the “% inh. (percentage inhibition of IL-5 production)” value was 54%.
`Cn1ccnc1C(O)(c1ccc(Cl)cc1)c1ccc(-n2ncc(=O)[nH]c2=O)cc1Cl.O` (racemic) [Compound 120, (±)-2-[3-chloro[4-[(4-chlorophenyl)hydroxy(1-methyl-1H-imidazol-2-yl)methyl]phenyl]-1,2,4-triazine-3,5(2H,4H)-dione monohydrate] was tested, and the “% inh. (percentage inhibition of IL-5 production)” value was 10%.
`O=c1cnn(-c2cc(Cl)c(C(Sc3cscn3)c3ccc(Cl)c(C(F)(F)F)c3)c(Cl)c2)c(=O)[nH]1` (stereo not drawn) [Compound 387] was tested, and the “% inh. (percentage inhibition of IL-5 production)” value was 93%.
`O=c1cnn(-c2ccc(C(SCc3ccc(Cl)cc3)c3ccc(Cl)cc3)c(Cl)c2)c(=O)[nH]1` (racemic) [Compound 67] was tested, and the “% inh. (percentage inhibition of IL-5 production)” value was 69%.
In the case of `O=c1cnn(-c2cc(Cl)c(C(c3ccc(Cl)cc3)c3nc(-c4cccs4)cs3)c(Cl)c2)c(=O)[nH]1` (racemic) [Comp 31], the “% inh. (percentage inhibition of IL-5 production)” value is reported as 93%.
With `Cc1nnc(C(c2ccc(Cl)cc2)c2ccc(-n3ncc(=O)[nH]c3=O)cc2Cl)o1` (racemic) [Comp 102] the “% inh. (percentage inhibition of IL-5 production)” value was 14%.
In the case of `O=c1cnn(-c2cc(Cl)c(C(Sc3nccc(NC(CO)CO)n3)c3ccc(Cl)cc3)c(Cl)c2)c(=O)[nH]1` (racemic) [Compound 361], the “% inh. (percentage inhibition of IL-5 production)” value is reported as 28%.
`O=c1cnn(-c2cc(Cl)c(C(Sc3nccc(N(CCO)CCO)n3)c3ccc(Cl)cc3)c(Cl)c2)c(=O)[nH]1` (racemic) [Compound 358] was tested, and the “% inh. (percentage inhibition of IL-5 production)” value was 63%.
For `O=c1cnn(-c2cc(Cl)c(C(Sc3ccncn3)c3ccc(Cl)cc3)c(Cl)c2)c(=O)[nH]1` (racemic) [Compound 409], the “% inh. (percentage inhibition of IL-5 production)” value was 88%.
`CCOC(=O)C(=O)Nc1cccc(-c2nnc(C(c3ccc(Cl)cc3)c3c(Cl)cc(-n4ncc(=O)[nH]c4=O)cc3Cl)o2)c1.O` (racemic) [Compound 219] was tested, and the “% inh. (percentage inhibition of IL-5 production)” value was 8%.
`O=c1cnn(-c2cc(Cl)c(C(c3ccc(Cl)cc3)c3nc(-c4ccc(Br)cc4)cs3)c(Cl)c2)c(=O)[nH]1` (racemic) [Comp 294] was tested, and the “% inh. (percentage inhibition of IL-5 production)” value was 85%.
In the case of `CC(c1ccc(Cl)c(C(F)(F)F)c1)(c1nc(-c2ccccc2)c(-c2ccccc2)s1)c1c(Cl)cc(-n2ncc(=O)[nH]c2=O)cc1Cl` (racemic) [Comp 237], the “% inh. (percentage inhibition of IL-5 production)” value is reported as 82%.
In the case of `O=c1cnn(-c2cc(Cl)c(C(Sc3ccccn3)c3ccc(Cl)cc3)c(Cl)c2)c(=O)[nH]1` (stereo not drawn) [Compound 377], the “% inh. (percentage inhibition of IL-5 production)” value is reported as 87%.
For `O=c1cnn(-c2cc(Cl)c(C(c3ccc(Cl)cc3)c3nnc(CCc4ccccc4)o3)c(Cl)c2)c(=O)[nH]1` (racemic) [Compound 172], the “% inh. (percentage inhibition of IL-5 production)” value was 17%.
For `CN(Cc1sc(C(c2ccc(Cl)cc2)c2c(Cl)cc(-n3ncc(=O)[nH]c3=O)cc2Cl)nc1-c1ccccc1)C1CCCCC1` (racemic) [Comp 334], the “% inh. (percentage inhibition of IL-5 production)” value was 75%.
`COc1ccc(Br)c(-c2csc(C(c3ccc(Cl)cc3)c3c(Cl)cc(-n4ncc(=O)[nH]c4=O)cc3Cl)n2)c1` (racemic) [Comp 25] was tested, and the “% inh. (percentage inhibition of IL-5 production)” value was 88%.
`CCCc1nnc(C(c2ccc(Cl)cc2)c2c(Cl)cc(-n3ncc(=O)[nH]c3=O)cc2Cl)o1` (racemic) [Compound 164] was tested, and the “% inh. (percentage inhibition of IL-5 production)” value was 84%.
With `O=c1cnn(-c2ccc(C(NC3CCCCC3)c3ccc(Cl)cc3)c(Cl)c2)c(=O)[nH]1` (racemic) [Compound 46] the “% inh. (percentage inhibition of IL-5 production)” value was 64%.
`O=C(Cc1sc(C(c2ccc(Cl)cc2)c2c(Cl)cc(-n3ncc(=O)[nH]c3=O)cc2Cl)nc1-c1ccccc1)NC1CCN(Cc2ccccc2)CC1` (racemic) [Comp 326] was tested, and the “% inh. (percentage inhibition of IL-5 production)” value was 89%.
For `CN1CCN(Cc2sc(C(c3ccc(Cl)cc3)c3c(Cl)cc(-n4ncc(=O)[nH]c4=O)cc3Cl)nc2-c2ccccc2)CC1` (racemic) [Comp 302], the “% inh. (percentage inhibition of IL-5 production)” value was 87%.
In the case of `O=c1cnn(-c2cc(Cl)c(C(Sc3nc4ccccc4o3)c3ccc(Cl)cc3)c(Cl)c2)c(=O)[nH]1` (stereo not drawn) [Compound 383], the “% inh. (percentage inhibition of IL-5 production)” value is reported as 78%.
For `O=c1cnn(-c2cc(Cl)c(C(c3ccc(Cl)cc3)c3nnc(CCOc4ccccc4)o3)c(Cl)c2)c(=O)[nH]1` (racemic) [Compound 187], the “% inh. (percentage inhibition of IL-5 production)” value was 25%.
With `Cc1ccc(-c2nnc(C(c3ccc(Cl)cc3)c3c(Cl)cc(-n4ncc(=O)[nH]c4=O)cc3Cl)o2)cc1` (racemic) [Compound 177] the “% inh. (percentage inhibition of IL-5 production)” value was 69%.
For `CCOC(=O)c1sc(C(c2ccc(Cl)cc2)c2c(Cl)cc(-n3ncc(=O)[nH]c3=O)cc2Cl)nc1-c1ccccc1` (racemic) [Comp 29], the “% inh. (percentage inhibition of IL-5 production)” value was 95%.

Same assay, conditions: test dose 1×10^−6 M, 48 hours, read-out: % inh. (percentage inhibition of IL-5 production)
Molecule `O=c1cnn(-c2cc(Cl)c(C(Nc3ncccn3)c3ccc(Cl)cc3)c(Cl)c2)c(=O)[nH]1` (racemic) [Compound 413, (±)-2-[3,5-dichloro-4-[(4-chlorophenyl)[(2-pyrimidinyl)amino]-methyl]phenyl]-1,2,4-triazine-3,5(2H,4H)-dione] has an inhibition at 1 µM of 59%.
In the case of `[N-]=[N+]=Nc1cccc(-c2nnc(C(c3ccc(Cl)cc3)c3c(Cl)cc(-n4ncc(=O)[nH]c4=O)cc3Cl)o2)c1` (racemic) [Compound 194, (±)-2-[4-[[5-(3-azidophenyl)-1,3,4-oxadiazol-2-yl](4-chlorophenyl)methyl]-3,5-dichlorophenyl]-1,2,4-triazine-3,5(2H,4H)-dione], the inhibition at 1 µM is reported as 83%.
